A short description of data set [1]: Solubility of ocaperidone in water and buffers of gastro-intestinal fluids. Format: physicochemical. How it is done:
Ocaperidone is virtually insoluble in water. Its water solubility is less or equal to 0.007 mg per mL. […] In order to be absorbed uniformly from the gastrointestinal tract after oral administration, the drug must be dissolved and must remain in the solution for absorption. The pH of the gastrointestinal tract varies from pH 1 to 5 in the stomach and pH 4 to 7.5 in the intestine. There is also known significant variation of the intestinal pH on an intra- and inter-individual basis in the general population. This variation is mostly attributed to factors such as gastro-intestinal motility, concomitantly administered food or drug and food habits etc. It is an object of the present invention to provide a therapeutic system for ocaperidone from which, despite its very low solubility in water (0.007 mg/mL), is dispensed/released in the surrounding intestinal environment in a dissolved state. This invention eliminates the effect of surrounding pH on the solubility of ocaperidone. In addition, this improvement in solubility makes this therapeutic system to function appropriately from the bioavailability point of view and overcomes the inter- and intra-individual variability.

A short description of data set [2]: Bioavailability studies with conventional oral dosage forms in animals. The class given is in vivo. The text has this:
(§1) One of the objects of the invention is to overcome these drawbacks observed with conventional dosage forms.

Data set [3] is described as follows: Bioavailability studies with conventional oral dosage forms in humans. Conditions: within a patient and between patients. The class given is in vivo.
From the text: as §1

SMILES strings stand for the structures. Converted amounts (≈) assume the structure as drawn.

The term solubility denotes the concentration that dissolves in the medium under given conditions.

With `Cc1nc2c(C)cccn2c(=O)c1CCN1CCC(c2noc3cc(F)ccc23)CC1` [Ocaperidone], the “solubility in the buffers of gastro-intestinal fluids” value in data set [1] (buffers of pH 3.0 and above) is reported as “in the same range as that of water”. Also, in data set [1] (water), the solubility was found to be 7 µg/mL (≈ 16.6 µM) and the water solubility was no more than 0.007 mg per mL. Also, the variability of bioavailability result in data set [2] was “significant high variability”. The variability of bioavailability result in data set [3] was “significant high variability”.

Source of the values: patent publication US20080103159A1, “Composition Comprising Ocaperidone” (priority 2005, published 2008).
